From patent US20200254059A1, “THERAPEUTIC AGENT OF UREMIA CONTAINING ALARIN AS THE MAIN INGREDIENT” (JU TIDE CO., LTD., priority 2017, published 2020)
“Also recorded” adds a separate entry of the source.

How the values were obtained:
Type in all cases: in vivo
[1] = Body weight in cisplatin-induced uremia Sprague-Dawley rat model; details: all test substance-administered groups (10 and 20 μg/head, single IV dose 8 h after cisplatin 5 mg/kg IP); Day 7; versus normal control group
Procedure: Cisplatin-induced uremia was evaluated for the effect of administration of test substance on an improvement of uremia in the Sprague-Dawley rat model. […] Cisplatin was intraperitoneally administered (IP) and test substance was intravenously administered (IV).

Cisplatin-induced uremia [2] = assay: Blood biochemical test (serum BUN and CRE) in cisplatin-induced uremia Sprague-Dawley rat model
Procedure: (§1) The intravenous administration was done by fixing an animal into a correction frame, and slowly injecting at a rate of within 1 mL/min through the micro vein using a syringe equipped with 26 gauges needle. The intraperitoneal administration was performed by fixing the animal by a transdormal skin fixation method and intraperitoneally injecting using a syringe equipped with 26 gauges needle.
Serum obtained from the centrifugation was tested for blood urea nitrogen (BUN) and […] (CRE) using a blood biochemical analyzer (7180 Hitachi, Japan).

Cisplatin-induced uremia [3] = assay: Kidney histopathological examination in cisplatin-induced uremia Sprague-Dawley rat model
Procedure: as §1
Finally, animals were inhaled with ether on an necropsy day to anesthetize and euthanize, and kidneys were extracted and fixed in a 10% neutral buffered formalin solution, and the fixed tissues were cut, dehydrated, paraffin embedded and hematoxylin & eosin stained to make a specimens for histopathological examination after these histological treatment. And then, the obtained specimen is subjected to speculum using an optical microscope (Olympus BX53, Japan).

[4] = serum, high dose group (20 μg/1 mL/head, single IV), versus induced control group given excipient

H-Ala-Pro-Ala-His-Arg-Ser-Ser-Thr-Phe-Pro-Lys-Trp-Val-Thr-Lys-Thr-Glu-Arg-Gly-Arg-Gln-Pro-Leu-Arg-Ser-OH-trifluoroacetate salt (H-APAHRSSTFPKWVTKTERGRQPLRS-OH; also: trifluoroacetate salt) [test substance, human-derived alarin, peptide derived from a splice variant of galanin-like peptide (GALP) RNA]
weight level measured on the day of necropsy [1]: no significant difference | improvement of uremia (overall conclusion) (Cisplatin-induced uremia [2]; cisplatin-induced uremia model, conclusion from blood biochemistry and histopathology): have an effect on the improvement of uremia | blood urea nitrogen (BUN) level (Cisplatin-induced uremia [2]; [4]): significantly lower; also recorded: significant difference | creatinine (CRE) level (Cisplatin-induced uremia [2]; [4]): significantly lower; also recorded: significant difference | blood biochemical level (Cisplatin-induced uremia [2]; single dose of 10 μg/1 mL/head and 20 μg/1 mL/head IV, versus control group of excipient): tendency to improve | histopathological examination results, lesion level across doses (Cisplatin-induced uremia [3]; 10 and 20 μg/1 mL/head, single IV dose): dose-related change trend and significant changes in lesion level | level of lesion, histopathological examination of kidney (Cisplatin-induced uremia [3]; high dose group (20 μg/head, single IV), H&E stained kidney, Day 7, versus control group): significantly lower
